The term Ki denotes the equilibrium dissociation constant of an inhibitor or competing ligand from its target.

Consider 14 molecules from paper PMC3408433, “Selective Cytotoxicity of Amidinopiperidine Based Compounds Towards Burkitt’s Lymphoma Cells Involves Proteasome Inhibition” (PLoS ONE, 2012).

Read-outs that look alike come from different tables or passages of the source.

The test system of data set [1] is Ramos Burkitt’s lymphoma cells. In words: Metabolic activity assay (MTS), Ramos. Format: cell-based, human. The settings on record: 24 h; for cytotoxicity group (Figure 3A) / viability at 100 µM: 100 µM; for viability at 100 µM: Homo sapiens, read-out: residual metabolic activity relative to untreated control. The method, then:
When investigating the potency of selected serine protease inhibitors to induce cell death in human B lymphoma cells, we identified a set of compounds cytotoxic for Burkitt’s lymphoma. Using a metabolic activity assay (MTS), we evaluated the proliferation rate of Ramos Burkitt’s lymphoma cells, in the presence of serine protease inhibitors. Cells were treated for 24 h with the compound of interest at concentrations of 100 µM (1–13, 15, 16) or 50 µM (14). After a comparison of metabolic activity relative to that in the untreated control, three groups with distinct modes of action were determined (Figure 3A). […] The second group (compounds 1–3, 5, 7 and 13) caused a moderate decrease (50% to 80%) relative to untreated cells. The last group of compounds (11, 15, 16) severely impaired the metabolic activity, such that it fell to under 6%.
(§1) Cells (1×10^5 cells/mL for Ramos, Daudi, U937 and Jurkat, and 1×10^6 cells/mL for PBMC) were treated with the appropriate amounts of compounds of interest or corresponding vehicle (control cells), then seeded in triplicate in 96 well plates. The metabolic activity was assessed using the CellTiter 96® Aqueous One Solution Cell Proliferation Assay (Promega, Madison/WI, USA), in accordance with the manufacturer’s instructions.

Another data set has as its target α-chymotrypsin (Bos taurus, UniProt P00766). In words: α-Chymotrypsin inhibition assay.
The next data set has as its target Trypsin. The arrangement: method as in PMID 15497744, PMID 15544050, PMID 17484277. The settings on record: amidolytic assay, chromogenic substrate; determined previously; cited from earlier work.
The target of another data set is Thrombin. The arrangement: method as in PMID 15497744, PMID 15544050, PMID 17484277. The settings on record: amidolytic assay, chromogenic substrate; determined previously; cited from earlier work.
The next data set has as its target Factor Xa. The arrangement: method as in PMID 15497744, PMID 15544050, PMID 17484277. The settings on record: amidolytic assay, chromogenic substrate; determined previously; cited from earlier work.
Data set [2] has as its system human histiocytic lymphoma (U937). In words: Metabolic activity assay (MTS), U937. The format is cell-based. The settings on record: U937, 50 µM, 24 h. The method, then:
(§2) Compounds 11, and 14–16 were further tested for selective cytotoxicity. The experiments were conducted on freshly isolated primary peripheral blood mononuclear cells (PBMC) and three other haematological cancers: human T cell leukaemia (Jurkat), human histiocytic lymphoma (U937) and human Burkitt’s lymphoma (Daudi). An MTS assay was performed following 24 h of treatment with the compound of interest at 50 µM. […] The inhibition of proliferation in Ramos cells, mediated with compounds 15 and 16, was concentration dependent.
as §1

In data set [3] the test system is peripheral blood mononuclear cells (PBMC). In words: Metabolic activity assay (MTS), PBMC. The settings on record: 50 µM, 24 h. The format is cell-based, human. As to the method: as §2, §1
Data set [4] concerns human T cell leukaemia (Jurkat). In words: Metabolic activity assay (MTS), Jurkat. The format is cell-based. The settings on record: 50 µM, 24 h. As to the method:
as §2, §1

Data set [5] deals with human Burkitt’s lymphoma (Daudi). In words: Metabolic activity assay (MTS), Daudi. Format: cell-based. The settings on record: 50 µM, 24 h. As to the method: as §2, §1
A further data set in a line: Solubility remark. The format is physicochemical. The settings on record: reason for testing at 50 µM.

Description for α-chymotrypsin: In short, a 1 nM solution of α-chymotrypsin was mixed with various concentrations of the substrate Suc-Ala-Ala-Pro-Phe-AMC. All the solutions were prepared in 144 mM Tris–HCl, pH 7.8. Substrate hydrolysis was monitored at 30°C on an automated Tecan Safire^2 microplate reader (Tecan, Mannedorf/Zürich, Switzerland). The initial rates of the reactions (ΔF/Δt) were measured immediately after the addition of the substrate (within 200 s) and plotted versus substrate concentration with nonlinear regression to fit a Michaelis-Menten plot. The curve fit and kinetic parameters (Km and v max) were calculated using GraphPad PRISM version 5.0 software (GraphPad Software, Inc., CA, USA). […] The initial velocities of the hydrolysis reactions were measured under the same conditions as described for the determination of Km. 50 µl of α-chymotrypsin solution was added to 50 µl of each inhibitor solution (prepared in 144 mM Tris–HCl, pH 7.8; final concentration 1 nM) and incubated at 30°C for 15 min. The reaction was initiated with the addition of 100 µl of substrate. […] The Ki values were determined as mean values of all measurements.

Take `CC1CCN(C(=O)N(Cc2ccc(C#N)cc2)NC(=O)c2ccc3ccccc3c2)CC1` [Compound 5]: in [1], the “cytotoxicity group (Figure 3A)” value was “moderately cytotoxic (caused a moderate decrease (50% to 80%) relative to untreated cells)” and the viability at 100 µM lay within 50 to 80%. On α-chymotrypsin, this molecule yielded a Ki of 273 µM.
As for `N/C(=N\O)c1cccc(CN(NC(=O)c2ccc3ccccc3c2)C(=O)N2CCCCCC2)c1` [Compound 3], the “cytotoxicity group (Figure 3A)” value in [1] is on record as “moderately cytotoxic (caused a moderate decrease (50% to 80%) relative to untreated cells)”. Also, in data set [1], the viability at 100 µM lay in the range of 50 to 80%. In addition, the Ki is 3 µM on α-chymotrypsin, over 100 µM on Trypsin, 4.8 µM on Thrombin and 60 µM on Factor Xa.
Turning to `CC(=O)NCc1ccc(CN(NS(=O)(=O)c2ccc3ccccc3c2)C(=O)N2CCCCC2)cc1` [Compound 9], in data set [1], the “cytotoxicity group (Figure 3A)” value was “well tolerated (well tolerated by Ramos, since their residual metabolic activity did not fall below 80%)” and the viability at 100 µM was at least 80%. Moreover, the Ki on α-chymotrypsin came out at 40.6 µM.
As to `CC1CCN(C(=O)N(CC2CCNCC2)NS(=O)(=O)c2ccc3ccccc3c2)CC1` [Compound 11], the “residual metabolic activity relative to control” value in [1] (50 µM), in data set [2], in data set [3], in data set [4] and in data set [5] was “under 40%” each time. The “cytotoxicity group (Figure 3A)” value in data set [1] is on record as “severely cytotoxic (severely impaired the metabolic activity, such that it fell to under 6%)”. In addition, the viability at 100 µM in [1] was under 6%. The results for the Ki on α-chymotrypsin, on Trypsin and at Thrombin were 38.8 µM, over 200 µM and 19 µM, respectively.
With `N/C(=N\O)c1cccc(CN(NS(=O)(=O)c2ccc3ccccc3c2)C(=O)N2CCOCC2)c1` [Compound 4], in data set [1], the “cytotoxicity group (Figure 3A)” value is “well tolerated (well tolerated by Ramos, since their residual metabolic activity did not fall below 80%)”. The viability at 100 µM in [1] is at least 80%. Further, the Ki on α-chymotrypsin was 41 µM; on Trypsin it was 48 µM; on Thrombin it was 3.1 µM; at Factor Xa, 60 µM.
As for `O=C(N1CCOCC1)N(CC1CCNCC1)NS(=O)(=O)c1ccc2ccccc2c1` [Compound 12], the “cytotoxicity group (Figure 3A)” value in data set [1] is given as “well tolerated (well tolerated by Ramos, since their residual metabolic activity did not fall below 80%)”. The viability at 100 µM in data set [1] is at least 80%. In addition, the Ki at α-chymotrypsin is 150 µM; on Trypsin, over 200 µM; at Thrombin it was 53 µM.
In the case of `CC1CCN(C(=O)N(Cc2ccc(/C(N)=N\O)cc2)NC(=O)c2ccc3ccccc3c2)CC1` [Compound 2], the “cytotoxicity group (Figure 3A)” value in data set [1] is “moderately cytotoxic (caused a moderate decrease (50% to 80%) relative to untreated cells)”. In addition, in [1], the viability at 100 µM lay in the range of 50 to 80%. Further, the inhibitory constant (Ki) on α-chymotrypsin was 259 µM; at Trypsin it was 200 µM; on Thrombin, over 200 µM; on Factor Xa, over 200 µM.
For `CC1CCN(C(=O)N(Cc2cccc(C(=N)N)c2)NC(=O)c2ccc3ccccc3c2)CC1` [Compound 6], in data set [1], the “cytotoxicity group (Figure 3A)” value is “well tolerated (well tolerated by Ramos, since their residual metabolic activity did not fall below 80%)”. In [1], the viability at 100 µM was at least 80%. Moreover, the Ki on α-chymotrypsin was 17.1 µM; at Trypsin it was 1.8 µM; on Thrombin, 6.8 µM; at Factor Xa, 5.7 µM.
On to `Nc1ccc(CN(NS(=O)(=O)c2ccc3ccccc3c2)C(=O)N2CCOCC2)cc1` [Compound 7], for which, in [1], the “cytotoxicity group (Figure 3A)” value is given as “moderately cytotoxic (caused a moderate decrease (50% to 80%) relative to untreated cells)”. Also, the viability at 100 µM in data set [1] lay in the range of 50 to 80%. Besides, the inhibition constant Ki is 4 µM at α-chymotrypsin, 5.6 µM at Trypsin, 4.5 µM on Thrombin and 62 µM at Factor Xa.
On to `CC(C)CC(NS(=O)(=O)c1ccc2ccccc2c1)C(=O)NN(Cc1ccc(C(=N)N)cc1)C(=O)N1CCCCCC1` (centres unmarked) [Compound 10], for which the “cytotoxicity group (Figure 3A)” value in data set [1] is “well tolerated (well tolerated by Ramos, since their residual metabolic activity did not fall below 80%)”. In addition, the viability at 100 µM in data set [1] is at least 80%. Further, the Ki was 8.8 µM at α-chymotrypsin (read-out: Ki α-chymotrypsin, substrate Suc-Ala-Ala-Pro-Phe-AMC, pH 7.8, 30°C); over 100 µM on Trypsin; 10 µM at Thrombin; over 100 µM at Factor Xa.
As to `N/C(=N/O)c1ccc(CN(NC(=O)c2ccc3ccccc3c2)C(=O)N2CCCCCC2)cc1` [Compound 1], in data set [1], the “cytotoxicity group (Figure 3A)” value is on record as “moderately cytotoxic (caused a moderate decrease (50% to 80%) relative to untreated cells)”. Further, the viability at 100 µM in [1] fell in the range of 50 to 80%. In addition, the inhibition constant Ki was 33.5 µM on α-chymotrypsin, 660 µM on Trypsin, 5.2 µM at Thrombin and 78 µM at Factor Xa.
`CC(=O)N1CCC(CN(NS(=O)(=O)c2ccc3ccccc3c2)C(=O)N2CCCCC2)CC1` [Compound 14] displayed a Ki at α-chymotrypsin of 47.7 µM. In addition, the “residual metabolic activity relative to control” value in data set [2], in data set [3], in [4] and in data set [5] was “under 40%” throughout. Also, the solubility entry in the data set “Solubility remark” is on record as “poor solubility”.
Turning to `O=C(N1CCCCC1)N(CC1CCNCC1)NS(=O)(=O)c1ccc2ccccc2c1` [Compound 13], the “cytotoxicity group (Figure 3A)” value in [1] is listed as “moderately cytotoxic (caused a moderate decrease (50% to 80%) relative to untreated cells)”. The viability at 100 µM in data set [1] was in the range of 50 to 80%. Further, the Ki at α-chymotrypsin is 65.9 µM; at Trypsin, over 200 µM; at Thrombin it was 30 µM.
`CC(=O)Nc1ccc(CN(NS(=O)(=O)c2ccc3ccccc3c2)C(=O)N2CCOCC2)cc1` [Compound 8]: in [1], the “cytotoxicity group (Figure 3A)” value is “well tolerated (well tolerated by Ramos, since their residual metabolic activity did not fall below 80%)” and the viability at 100 µM is at least 80%. For the same molecule, the Ki on α-chymotrypsin was determined as 24.7 µM.
